From patent US9944666B2, “Compounds that are S1P modulating agents and/or ATX modulating agents” (BIOGEN MA INC., priority 2012, dated 2018)

What follows are compounds tested against T1, Human ATX protein (Homo sapiens, UniProt Q13822) (assay: ATX biochemical FRET assay with FS-3 substrate). Conditions: FS-3 2 μM, ATX 1.0 μg/mL, room temperature 2 hours, fluorescence 485/538 nm.
T1 construct: made in house
In short: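 Purified human ATX (1.0 μg/mL final) preincubated with compound 30 min at room temperature in Tris pH 7.4 buffer with NaCl, KCl, CaCl2, MgCl2 and 1 mg/mL fatty acid-free BSA. FS-3 added to 2 μM final; 2 h at room temperature in the dark, fluorescence at ex 485/em 538 nm.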
With `COC(=O)C1CC2CCC(C1)N2C(=O)c1ccc2c(C(F)(F)F)c(N[C@H]3CC[C@@H](C(F)(F)F)CC3)ccc2c1` (stereo partly drawn) [Example 231, methyl 8-(5-(trifluoromethyl)-6-((cis-4-(trifluoromethyl)cyclohexyl)amino)-2-naphthoyl)-8-azabicyclo[3.2.1]octane-3-carboxylate] the IC50 was ≤ 250 nM.
In the case of `CC[C@H]1CC[C@@H](Oc2ccc3cc(C(C)N4C5CCC4CC(C(=O)O)C5)ccc3c2C#N)CC1` (stereo partly drawn) [Example 212, 8-(1-(5-cyano-6-((cis-4-ethylcyclohexyl)oxy)naphthalen-2-yl)ethyl)-8-azabicyclo[3.2.1]octane-3-carboxylic acid], the IC50 is reported as ≤ 100 nM.
For `O=C(O)C1CC2CCC(C1)N2C(=O)Cc1ccc2c(C(F)(F)F)c(O[C@H]3CC[C@@H](C(F)(F)F)CC3)ccc2c1` (relative stereo) [Example 117, 2-(2-(5-(trifluoromethyl)-6-((cis-4-(trifluoromethyl)cyclohexyl)oxy)naphthalene-2-yl)acetyl)-2-azabicyclo[1.2.3]octane-7-carboxylic acid], the IC50 was ≤ 500 nM.
With `C[C@H](c1ccc2c(Cl)c(O[C@H]3CC[C@@H](C(F)(F)F)CC3)ccc2c1)N1C2CCCC1CC(C(=O)O)C2` (single isomer, unassigned) [Example 240] the IC50 was ≤ 100 nM.
For `CC[C@H](c1ccc2c(C(F)(F)F)c(O[C@H]3CC[C@@H](C(F)(F)F)CC3)ccc2c1)N1C2CCCC1CC(C(=O)O)C2` (single isomer, unassigned) [Example 295], the IC50 was ≤ 250 nM.
In the case of `CC[C@H]1CC[C@@H](Oc2ccc3cc(C(C)N4C5CCC4CC(C(=O)O)C5)ccc3c2C(F)(F)F)CC1` (relative stereo) [Example 176, 8-(1-(6-((cis-4-ethylcyclohexyl)oxy)-5-(trifluoromethyl)naphthalen-2-yl)ethyl)-8-azabicyclo[3.2.1]octane-3-carboxylic acid], the IC50 is reported as ≤ 100 nM.
`N#Cc1c(O[C@H]2CC[C@@H](C(F)(F)F)CC2)ccc2cc(C(=O)N3C4CCCC3CC(C(=O)O)C4)ccc12` (stereo partly drawn) [Example 206, 9-(5-cyano-6-((cis-4-(trifluoromethyl)cyclohexyl)oxy)-2-naphthoyl)-9-azabicyclo[3.3.1]nonane-3-carboxylic acid] was tested, and the IC50 was ≤ 100 nM.
In the case of `C[C@H]1CC[C@@H](Oc2ccc3cc(CN4C5CCC4CC(C(=O)O)C5)ccc3c2C(F)(F)F)CC1` (stereo partly drawn) [Example 96, 8-((6-((cis-4-Methylcyclohexyl)oxy)-5-(trifluoromethyl)naphthalen-2-yl)methyl)-8-azabicyclo[3.2.1]octane-3-carboxylic acid], the IC50 is reported as ≤ 500 nM.
For `C[C@H]1CC[C@H](Nc2cc3ccc(C(=O)N4C5CCCC4CC(C(=O)O)C5)cc3cn2)CC1` (stereo partly drawn) [Example 263, 9-(3-((trans-4-methylcyclohexyl)amino)isoquinoline-7-carbonyl)-9-azabicyclo[3.3.1]nonane-3-carboxylic acid], the IC50 was ≤ 500 nM.
With `CC(c1ccc2c(C(F)(F)F)c(O[C@H]3CC[C@@H](C(C)(F)F)CC3)ccc2c1)N1C2CCCC1CC(C(=O)O)C2` (stereo partly drawn) [Example 217, 9-(1-(6-((cis-4-(1,1-difluoroethyl)cyclohexyl)oxy)-5-(trifluoromethyl)naphthalen-2-yl)ethyl)-9-azabicyclo[3.3.1]nonane-3-carboxylic acid] the IC50 was ≤ 100 nM.
With `CC[C@H](c1ccc2c(C(F)(F)F)c(O[C@H]3CC[C@@H](CC)CC3)ccc2c1)N1C2CCC1CC(C(=O)O)C2` (single isomer, unassigned) [Example 293] the IC50 was ≤ 500 nM.
For `O=C(O)C1CC2CCCC(C1)N2Cc1cc2ccc(O[C@H]3CC[C@@H](C(F)(F)F)CC3)c(Br)c2cn1` (stereo partly drawn) [Example 274, 9-((8-bromo-7-((cis-4-(trifluoromethyl)cyclohexyl)oxy)isoquinolin-3-yl)methyl)-9-azabicyclo[3.3.1]nonane-3-carboxylic acid], the IC50 was ≤ 250 nM.
In the case of `CCC(c1ccc2c(Cl)c(O[C@H]3CC[C@@H](CC)CC3)ccc2c1)N1C2CCCC1CC(C(=O)O)C2` (stereo partly drawn) [Example 237, 9-(1-(5-chloro-6-((cis-4-ethylcyclohexyl)oxy)naphthalen-2-yl)propyl)-9-azabicyclo[3.3.1]nonane-3-carboxylic acid], the IC50 is reported as ≤ 250 nM.
`O=C(O)C1CCCC(C2CN(Cc3ccc4c(C(F)(F)F)c(O[C@H]5CC[C@@H](C(F)(F)F)CC5)ccc4c3)C2)C1` (relative stereo) [Example 159, N-(5-trifluoromethyl-6-(cis-4-trifluoromethyl-cyclohexyloxy)-naphthalen-2-ylmethyl)-3-(azetidine-3-yl)-cyclohexane-1-carboxylic acid] was tested, and the IC50 was ≤ 500 nM.
With `CC(c1ccc2c(C#N)c(O[C@H]3CC[C@@H](C)CC3)ccc2c1)N1C2CCCC1CC(C(=O)O)C2` (stereo partly drawn) [Example 225, 9-(1-(5-cyano-6-((cis-4-methylcyclohexyl)oxy)naphthalen-2-yl)ethyl)-9-azabicyclo[3.3.1]nonane-3-carboxylic acid] the IC50 was ≤ 100 nM.
`CC(c1ccc2c(C(F)F)c(O[C@H]3CC[C@@H](C)CC3)ccc2c1)N1C2CCC1CC(C(=O)O)C2` (single isomer, unassigned; enantiomer 1) [Example 136, 8-(1-(5-(difluoromethyl)-6-((cis-4-methylcyclohexyl)oxy)naphthalen-2-yl)ethyl)-8-azabicyclo[3.2.1]octane-3-carboxylic acid, enantiomer 1] was tested, and the IC50 was ≤ 100 nM.
With `O=C(O)C1CC2CCC(C1)N2C(=O)c1ccc2c(Cl)c(O[C@H]3CC[C@@H](C(F)(F)F)CC3)ccc2c1` (stereo partly drawn) [Example 186, 8-(5-chloro-6-((cis-4-(trifluoromethyl)cyclohexyl)oxy)-2-naphthoyl)-8-azabicyclo[3.2.1]octane-3-carboxylic acid] the IC50 was ≤ 250 nM.
For `CC(c1ccc2c(C(F)(F)F)c(O[C@H]3CC[C@@H](C(F)(F)F)CC3)ccc2c1)N1C2CCC1CC(C(=O)O)C2` (relative stereo) [Example 122, 8-(1-(5-(trifluoromethyl)-6-((cis-4-(trifluoromethyl)cyclohexyl)oxy)-naphthalene-2-yl)ethyl)-8-azabicyclo[3.2.1]octane-3-carboxylic acid], the IC50 was ≤ 100 nM.
In the case of `CC(c1ccc2c(C(F)(F)F)c(O[C@H]3CC[C@@H](C)CC3)ccc2c1)N1C2CCC1CC(C(=O)O)C2` (single isomer, unassigned; enantiomer 2) [Example 131, 8-(1-(6-((cis-4-Methylcyclohexyl)oxy)-5-(trifluoromethyl)naphthalen-2-yl)ethyl)-8-azabicyclo[3.2.1]octane-3-carboxylic acid, enantiomer 2], the IC50 is reported as ≤ 100 nM.
For `CC(c1ccc2c(C#N)c(O[C@H]3CC[C@@H](C)CC3)ccc2c1)N1C2CCC1CC(C(=O)O)C2` (stereo partly drawn) [Example 189, 8-(1-(5-cyano-6-((cis-4-methylcyclohexyl)oxy)naphthalen-2-yl)ethyl)-8-azabicyclo[3.2.1]octane-3-carboxylic acid], the IC50 was ≤ 250 nM.
For `CCC(c1ccc2c(Cl)c(O[C@H]3CC[C@@H](C)CC3)ccc2c1)N1C2CCC1CC(C(=O)O)C2` (stereo partly drawn) [Example 210, 8-(1-(5-chloro-6-((cis-4-methylcyclohexyl)oxy)naphthalen-2-yl)propyl)-8-azabicyclo[3.2.1]octane-3-carboxylic acid], the IC50 was ≤ 100 nM.
`CC[C@H]1CC[C@@H](Oc2ccc3cc(C(=O)N4C5CCCC4CC(C(=O)O)C5)ccc3c2Cl)CC1` (stereo partly drawn) [Example 227, 9-(5-chloro-6-((cis-4-ethylcyclohexyl)oxy)-2-naphthoyl)-9-azabicyclo[3.3.]nonane-3-carboxylic acid] was tested, and the IC50 was ≤ 100 nM.
With `CC(c1ccc2c(C(F)(F)F)c(O[C@H]3CC[C@@H](C)CC3)ccc2c1)N1C2CCC1CC(C(=O)O)C2` (single isomer, unassigned; enantiomer 1) [Example 130, 8-(1-(6-((cis-4-Methylcyclohexyl)oxy)-5-(trifluoromethyl)naphthalen-2-yl)ethyl)-8-azabicyclo[3.2.1]octane-3-carboxylic acid, enantiomer 1] the IC50 was ≤ 250 nM.
With `CCC(c1ccc2c(C#N)c(O[C@H]3CC[C@@H](C)CC3)ccc2c1)N1C2CCC1CC(C(=O)O)C2` (stereo partly drawn) [Example 226, 8-(1-(5-cyano-6-((cis-4-methylcyclohexyl)oxy)naphthalen-2-yl)propyl)-8-azabicyclo[3.2.1]octane-3-carboxylic acid] the IC50 was ≤ 100 nM.
For `CCC(c1ccc2c(C(F)F)c(O[C@H]3CC[C@@H](C)CC3)ccc2c1)N1C2CCC1CC(C(=O)O)C2` (single isomer, unassigned; enantiomer 1) [Example 140, 8-(1-(5-(difluoromethyl)-6-((cis-4-methylcyclohexyl)oxy)naphthalen-2-yl)propyl)-8-azabicyclo[3.2.1]octane-3-carboxylic acid, enantiomer 1], the IC50 was ≤ 100 nM.
`O=C(O)C1CC2CCC(C1)C2NCc1ccc2c(C(F)(F)F)c(O[C@H]3CC[C@@H](C(F)(F)F)CC3)ccc2c1` (single isomer, unassigned; enantiomer 1) [Example 162, N-(5-trifluoromethyl-6-(cis-4-trifluoromethyl-cyclohexyloxy)-naphthalen-2-ylmethyl)-8-aminobicyclo[3.2.1]octane-3-carboxylic acid, enantiomer 1] was tested, and the IC50 was ≤ 250 nM.
`O=C(O)C12CC3CC(C1)N(Cc1ccc4c(C(F)(F)F)c(O[C@H]5CC[C@@H](C(F)(F)F)CC5)ccc4c1)C(C3)C2` [Example 283, 9-(1R,3S,5S,7S)-2-((5-(trifluoromethyl)-6-((cis-4-(trifluoromethyl)cyclohexyl)oxy)naphthalen-2-yl)methyl)-2-azaadamantane-5-carboxylic acid] was tested, and the IC50 was ≤ 100 nM.
For `C[C@H]1CC[C@@H](Oc2ccc3cc(CN4C5CCC4CC(C(=O)O)C5)ccc3c2C(F)F)CC1` (relative stereo) [Example 134, 8-(1-(5-(difluoromethyl)-6-((cis-4-methylcyclohexyl)oxy)naphthalen-2-yl)methyl)-8-azabicyclo[3.2.1]octane-3-carboxylic acid], the IC50 was ≤ 100 nM.
`C[C@H]1CC[C@@H](Oc2ccc3cc(C(=O)N4C5CCCC4CC(C(=O)O)C5)ccc3c2C(F)(F)F)CC1` (relative stereo) [Example 125, 9-(6-((cis-4-Methylcyclohexyl)oxy)-5-(trifluoromethyl)-2-naphthoyl)-9-azabicyclo[3.3.1]nonane-3-carboxylic acid] was tested, and the IC50 was ≤ 250 nM.
